Data as given in US8975289B2, “Benzyl aralkyl ether compounds, method for preparing same, intermediate compounds, use of said compounds, method for treatment and/or prevention, pharmaceutical composition and medicament containing same” (priority 2009, dated 2015).

System: three different species of yeast and two distinct species of bacteria
Experiment: Growth inhibition of the yeast and bacteria strains of Table 5, summary
Assay type: cell-based
Description: For the experiments of the present invention (i) yeast strains obtained from clinical isolates and laboratory isolates, and (ii) bacterial strains obtained from laboratory isolates were used, as described in Table 5 as follows.
The yeast strains were grown in culture medium Sabouraud Dextrose Agar maintained at a temperature of 35° C. for 48 hours.
The bacterial strains were grown in culture medium Triptic Soy Agar at 35° C. for two to six hours (or until the turbidity of a McFarland standard solution equal to 0.5). 5.2 Mounting of Preparations and Test For the experiments, compound 1-[2-(2,4-dichlorophenyl)-2-{[4-(trifluoromethyl)benzyl]oxy}ethyl]-1H-imidazole (BL-123) in the form of its nitrate salt, 1-[2-(2,4-dichlorophenyl)]-2-({4-[(2-phenyl)-2H-tetrazole]benzyl}oxy)ethyl]-1H-imidazole (BL-137), and miconazole nitrate were used. The compounds were dissolved in dimethyl sulfoxide (DMSO) to match the final concentration of the compound equal to or less than 1%.
The methodology used to test the sensitivity of the agent was broth microdilution according to the method described in Standard M27-A2 (Reference method for broth dilution tests to determine the sensitivity of yeasts to antifungal therapy-second edition, NCCLS, volume 22 number 15, USA, 2002) as follows.
The yeast strains were grown according to item 5.1.a to obtain a culture containing between 1×10^6 and 5×10^6 CFU/mL. […]

## FC(F)(F)c1ccc(COC(Cn2ccnc2)c2ccc(Cl)cc2Cl)cc1 (stereo not shown) [BL-123, 1-[2-(2,4-dichlorophenyl)-2-{[4-(trifluoromethyl)benzyl]oxy}ethyl]-1H-imidazole]
  Inhibitory effect on growth (in words): exert an inhibitory effect on the growth
